Results as given in ChEMBL document CHEMBL1201862, “PubChem BioAssay data set” (2004).
The source made the active and inactive calls. No stated cut-off is given here; in the data, actives have a measured IC50 and inactives only a lower limit.

Target: Envelope glycoprotein gp160 (Human immunodeficiency virus 1, UniProt Q6QLK5)
Experiment: inhibitors of HIV fusion peptide binding, primary screen, biochemical, uHTS, fluorescence dequenching (AID 1986)

Envelope glycoprotein gp160, sequence (Q6QLK5 whole entry, the tested form may be a part): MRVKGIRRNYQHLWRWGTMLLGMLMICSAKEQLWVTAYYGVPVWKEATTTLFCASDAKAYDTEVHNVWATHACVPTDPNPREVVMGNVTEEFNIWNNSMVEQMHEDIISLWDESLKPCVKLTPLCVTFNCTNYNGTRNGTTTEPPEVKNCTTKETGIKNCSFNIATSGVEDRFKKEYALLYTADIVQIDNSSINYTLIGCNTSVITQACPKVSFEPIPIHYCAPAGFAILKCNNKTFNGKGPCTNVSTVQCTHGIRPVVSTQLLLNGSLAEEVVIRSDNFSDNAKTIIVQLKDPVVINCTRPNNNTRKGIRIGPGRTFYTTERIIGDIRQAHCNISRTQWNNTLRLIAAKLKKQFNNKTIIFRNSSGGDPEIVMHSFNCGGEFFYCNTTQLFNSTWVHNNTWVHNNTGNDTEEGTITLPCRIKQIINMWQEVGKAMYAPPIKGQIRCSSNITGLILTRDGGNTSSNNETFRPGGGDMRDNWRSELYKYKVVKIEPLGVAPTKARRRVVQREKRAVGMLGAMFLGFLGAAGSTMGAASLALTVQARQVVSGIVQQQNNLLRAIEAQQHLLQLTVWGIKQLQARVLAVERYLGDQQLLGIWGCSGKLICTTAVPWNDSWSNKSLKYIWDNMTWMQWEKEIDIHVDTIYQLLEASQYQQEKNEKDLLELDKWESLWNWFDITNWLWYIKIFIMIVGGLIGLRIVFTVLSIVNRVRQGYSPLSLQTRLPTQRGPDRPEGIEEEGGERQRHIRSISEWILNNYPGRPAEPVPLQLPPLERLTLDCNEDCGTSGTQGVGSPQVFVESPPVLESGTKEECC

In the case of `O=C(N/N=C/c1ccc(-c2ccc(S(=O)(=O)Nc3ncccn3)cc2)o1)c1cc2ccccc2cc1O`, the IC50 is reported as 5.36 µM (active).
